From ChEMBL document CHEMBL1129765, “Azonia derivatives of the -carboline system. A new class of DNA intercalators” (Bioorg Med Chem Lett, 1996)

Tested on: HT-29
Assay: Compound was tested in vitro to inhibit 50% colon carcinoma HT-29 cell growth after 72 h
Assay type: functional, cell-based
Conditions: Homo sapiens, HT-29, 72 h

EC50: 2500 nM
SMILES: COc1cccc2c1C(=O)c1c(O)c3c(c(O)c1C2=O)C[C@@](O)(C(=O)CO)C[C@@H]3O[C@H]1C[C@H](N)[C@H](O)[C@H](C)O1 [DOXORUBICIN]
